In brackets after ≈: the same amount, converted by molar mass. Activity calls are given as the source filed them. The rule behind the calls is not given here.
Legend:
[1] = Toxicity in Han Wistar rat assessed as structural changes in retina at 250 to 1000 mg/kg, po administered every other day for 7 days; type: organism-based; settings: in vivo, 168 h, dose 250-1000 mg/kg, time 7 day
[2] = system: Plasmodium falciparum; test: Antimalarial activity against ELQ300 resistant Plasmodium falciparum Dd2 harbouring pfcytB mutated loci assessed as inhibition of parasite growth pretreated for 48 hrs followed by [3H]-hypoxanthine addition measured after 24 hrs by scintillation counting method; type: functional, organism-based
[3] = Genotoxicity in Han Wistar rat by micronucleus assay; type: toxicity
[4] = fAUC in Han Wistar rat at 1000 mg/kg, po administered every other day for 7 days; type: ADME, organism-based; settings: in vivo, 168 h, time 7 day
[5] = Toxicity in Han Wistar rat assessed as body weight gain at 250 to 1000 mg/kg, po administered every other day for 7 days; type: organism-based; settings: in vivo, 168 h, dose 250-1000 mg/kg, time 7 day
[6] = Toxicity in Han Wistar rat assessed as changes in ophthalmology at 250 to 1000 mg/kg, po administered every other day for 7 days; type: organism-based; settings: in vivo, 168 h, dose 250-1000 mg/kg, time 7 day
[7] = Genotoxicity in Han Wistar rat by ames assay; type: toxicity
[8] = system: Plasmepsin X (Plasmodium falciparum); test: Binding affinity to Plasmodium falciparum PMX assessed as dissociation constant by SPR analysis
[9] = Toxicity in Han Wistar rat assessed as effect on auditory reflex at 250 to 1000 mg/kg, po administered every other day for 7 days; type: organism-based; settings: in vivo, 168 h, dose 250-1000 mg/kg, time 7 day
[10] = AUC in Cynomolgus monkey blood at 10 mg/kg, po measured at 2 to 72 hrs by LC-MS/MS analysis; type: ADME, organism-based, Macaca fascicularis; design: dose 10 mg/kg, time 2-72 hrs, route po
[11] = Drug metabolism in Cynomolgus monkey hepatocytes assessed as (S)-6-(2-chloro-3-((6-cyclopropylpyridin-3-yl)amino)phenyl)-2-imino-6-methyltetrahydropyrimidin-4(1H)-one metabolite formation; type: ADME, cell-based, Macaca fascicularis, Hepatocyte
[12] = Solubility of the compound in FeSSIF; type: physicochemical; settings: simulated gi fluid
[13] = system: Plasmodium berghei; test: Antimalarial activity against luciferase expressing Plasmodium berghei sporozoites infected in naive C57B/6 liver mouse model assessed as decrease in liver infection at 50 mg/kg, po administered once daily on day 8 by Giemsa staining based microscopic analysis; type: functional, organism-based; settings: time 8.0 day
[14] = system: Plasmodium falciparum; test: Antimalarial activity against blood stage Plasmodium infected in NSG mouse model assessed as parasite recrudescence by measuring parasitemia at 50 mg/kg, po measured 60 days by flow cytometry; type: functional, organism-based; settings: time 60.0 day
[15] = system: Plasmodium falciparum; test: Antimalarial activity against Plasmodium falciparum infected NSG mouse model at 50 mg/kg, po administered daily for 3 days; type: functional, organism-based; settings: time 3.0 day
[16] = Inhibition of Plasmodium falciparum PMV by FRET assay

Row | Structure (SMILES) | Activity [1] | IC50 [2] | Activity [3] | fAUC [4] | Activity [5] | Activity [6] | Activity [7] | Kd [8] | Activity [9] | AUC [10] | Drug metabolism [11] | solubility [12] | Activity [13] | Activity [14] | Activity [15] | IC50 [16]
1 | C[C@H]1C[C@@H](N2C(=N)N[C@](C)(c3cccc(NC(=O)c4cccc(C#N)c4)c3Cl)CC2=O)CCO1 | Non-Toxic | 17 nM | Non-Toxic | 908 µM·h | Non-Toxic | Non-Toxic | Non-Toxic | 5.5 nM | Non-Toxic | 7.38 µM·h | – | – | – | – | – | –
2 | C[C@H]1C[C@@H](N2C(=N)N[C@](C)(c3cccc(Nc4ccc(C5CC5)nc4)c3Cl)CC2=O)CCO1 | – | – | – | – | – | – | – | – | – | – | Metabolite_Detected | 960 µM (≈ 449 µg/mL) | Active | Active | Active | > 10000 nM

From ChEMBL document CHEMBL5108065 (J Med Chem, 2022)
